Measurements: patent US20090036441A1, “Indole Derivatives With Antitumor Activity” (Cell Therapeutics Europe S.R.L., priority 2004, published 2009)

Tests used:
[1] = target: T1, Biot-Hif-1α^786-826/GST-p300^323/423 (Homo sapiens, UniProt Q09472); assay: Primary biochemical assay (DELFIA fluorescence) for inhibition of the Hif-1α/p300 interaction; format: binding; conditions: 10 concentrations from 90 μM to 0.178 μM, 1 h at 25° C.
T1 construct: the p300 region ranging from amino acids 323 to 423; fragment corresponding to C-terminal 786-826 amino acids; host or cells: E. coli BL21 (DE3), vector pGEX-4T-1
Experimental: Primary Biochemical Assay for the Inhibition of Biot-Hif-1α^786-826/GST-p300^323/423
The compounds were evaluated for their ability to inhibit the interaction between Hif-1α and p300 using a fluorescence assay (DELFIA™). The procedure described by Freedman S J at al., Nature Structural Biology 2003, 10 (7), 504-512 was suitably modified.
The human biotinylated Hif-1α fragment corresponding to C-terminal 786-826 amino acids (Biotinylated Hif-1α^786-826) was obtained from AnaSpec Inc (San Jose, Calif., USA) and used without further purifications.
A construct expressing the GST-p300^323-423 fragment was transformed in the BL21 (DE3) strain of E. coli. Said construct was obtained by cloning in the expression vector pGEX-4T-1 (Amersham No. 27-45-80-01) the DNA sequence which encodes for the p300 region ranging from amino acids 323 to 423; the DNA sequence was obtained by PCR (Polymerase Chain Reaction). The protein region was induced with 1 mM isopropyl-1-tio-β-D-galactopyranoside (IPTG). The bacteria were lysed by sonication in the presence of a suitable buffer (50 mM Tris*HCl pH 8.00, 100 mM NaCl, 0.1 mM ZnSO4, 1 mM DTT, 0.1 mg/ml lysozyme and a tablet of Complete EDTA-free Protease Inhibitor Cocktail Tablets (Roche, catalogue number 1 873 580)) and the GST fusion protein present in the soluble fraction was purified on a Glutathione-Sepharose 4B resin (Amersham Biosciences; no. 27-4574-01). The protein final concentration was determined according to Bradford with the Biorad assay (Bradford M., Anal. Biochem., 72, 248, (1976)). The purity of the sample was evaluated by SDS-PAGE. Samples were stored at −80° C. in 50% glycerol.
The assay was carried out using NUNC Maxisorp 96 wells plates as follows.
C96 NUNC Maxisorp plates (from Nunc, product No. 446612) were incubated overnight with streptavidin (Sigma; product No. S 4762) to a final concentration of 1 μg/ml in PBS buffer (Phosphate Buffered Saline 10 mM sodium phosphate, 150 mM sodium chloride pH 7.4). Each well was subsequently washed with 3×300 μl of TBST buffer (50 mM Tris*HCl pH 8.0, 150 mM NaCl, 0.05% (v/v) Tween 20). Each well was then added with 100 μl of a 10 nM solution of biotinylated Hif-1α^786-826 in TBSB (50 mM Tris-HCl pH 8.0, 150 mM NaCl, 5% (w/v) BSA (Sigma, product No. A 2153)) and incubated for 1 h at 25° C. In the last row of each plate, only the TBSB buffer was added. Each well was subsequently washed three times with 300 μl of TBST buffer. The thus prepared plate represented the assay plate.
Separately, the plate (daughter plate) containing in each well 10 μl of each test compound dissolved in DMSO to a concentration of 10 μM was prepared. This plate was added with 100 μl of a 111 pM solution of GST-p300^323-423 diluted in the incubation buffer (TBSB added with 0.1% (v/v) Tween 20, 0.5 mM DTT, 10 μM ZnCl2) and the whole was mixed. 100 μl of the mixture contained in the daughter plate were immediately transferred to the assay plate.
Each daughter plate was prepared with 80 different compounds at a 10 μM concentration, safe for the two last well rows, wherein each well was added with 10 μl of DMSO. These two rows represented the positive (row 11, +Hif-1) and negative (row 12, −Hif-1) controls.
After incubation for 1 h at 25° C., each well was washed with 3×300 μl of TBST buffer (50 mM Tris-HCl pH 8.0. 150 mM NaCl, 0.05% (v/v) Tween 20). Each well was then added with 60.8 ng of an europium-labelled anti-GST antibody (DELFIA Eu-N1 labeled; Perkin Elmer; product no. A D 0251) dissolved in 100 μl of TBST buffer containing 10 μM ZnCl2. After incubation for 1 h at room temperature, each well was washed with 3×300 μl of TBST buffer, then 100 μl of signal amplification solution (Enhancement Solution, Perkin Elmer product No. 1244-105) were added.
The plates were then read using a FUSION alpha-FP-HT reader (Perkin Elmer) in fluorescence mode for time resolution.
The activity of the compounds was calculated as follows. […]

[2] = test system: secreted VEGF (Hep3B-VEGFLuciferase cells); assay: Secreted VEGF ELISA test in Hep3B-VEGFLuciferase cells, deferoxamine-induced hypoxia; format: cell-based; conditions: Homo sapiens, supernatant, deferoxamine about 100 μM, 18-20 hours, 50% reduction of secreted VEGF
Experimental: (§1) The compounds having inhibitory activity in the Hif-1α/p300 assay described above were evaluated using a cellular test on genetically modified human hepatocarcinoma Hep3B cells (Hep3B-VEGFLuciferase) in order to stably express a vector in which the Open Reading Frame of firefly Luciferase was under the control of the rat VEGF gene promoter.
(§2) The Hep-3B-VEGFLuciferase cell line was obtained according to the following procedure.
(§3) Human hepatocarcinoma cells Hep-3B (ATCC reference No. HB-8064) were seeded onto 6 wells plates at a concentration of 2.5×10^5 cells/well in 2 ml DMEM/10% FCS and the following day were transfected using Fugene 6 (Roche Biochemicals®). In each well, the transfection mixtures contained 6 μl of the transfection reagent Fugene 6, 1 μg of the pxp2-VEGF-luciferase reporter plasmid (VEGF rat promoter, NCBI GenBank No. of accession U22373, Levy et al., J. Biol. Chem. 270 (22), 13333-13340. 1995), and 10 ng of pcDNA3.1(+)plasmid (INVITROGEN) which makes cells resistant to neomycin. Transfection was carried out according to the manufacturer's instructions.
(§4) A suitable cell population (phenotypically resistant to neomycin) was selected by means of a cloning approach based on the “dilution limit” procedure (Sambrook J., Fritsch E. F. and Maniatis T. (1989) Molecular Cloning, A Laboratory Manual; Cold Spring Harbor Laboratories). The subsequent assays for Luciferase expression/activity “Luciferase assay” and for the quantification of secreted VEGF in the supernatant “ELISA secreted VEGF test”) were carried out with the stably transfected selected cells.
(§5) The following experimental protocol was used:
(§6) Day 1. Hep-3B-VEGF Luciferase cells were seeded onto 96-wells “blank” plates (a product by Greiner) at a density of 1×10^4 cells/well/125 μl of medium, then left to adhere overnight in thermostat (37° C./5% CO2).
(§7) Day 2. 75 μl of “3.2× working solutions” of compound (previously prepared in culture medium so that the DMSO concentration is 1.6% v/v) were added to the cells (partial volume/well=200 μl, partial concentration of compound=1.2×, partial concentration of DMSO=0.6%). After 1 hour incubation in thermostat, hypoxia was induced chemically by addition of 40 μl/well of a 6× (600 μM) stock solution of deferoxamine (final volume/well=240 μl, final concentration of compound=1×, final concentration of DMSO=0.5%, final concentration of deferoxamine=1×≈100 μM). The plates were then thermostated for further 18-20 hours.
(§8) Day 3. The “Luciferase assay” and the “secreted VEGF ELISA test” were carried out as follows.
“Secreted VEGF ELISA Test”
Quantification of secreted VEGF was performed using the kit “DuoSet Elisa Development System human VEGF” kit (R&D Systems). 100 μl/well of the supernatant from the “blank” 96 well-plates with the cells of the Hep3B/VEGF Luciferase clone were transferred into transparent 96-well plates of (Maxisorp) and assayed according to the indications of the kit manufacturer.
(§9) IC50 values (concentration of the compound that causes 50% inhibition of the luciferase signal or 50% reduction of secreted VEGF) for some compounds of the invention are reported in table 2: […]

[3] = test system: VEGF promoter (rat VEGF gene promoter, Hep3B-VEGFLuciferase cells); assay: Luciferase assay in Hep3B-VEGFLuciferase cells, deferoxamine-induced hypoxia; format: cell-based; conditions: Homo sapiens, deferoxamine about 100 μM, 18-20 hours, 50% inhibition of the luciferase signal
Experimental: as §1
Hif-1 Induction using deferoxamine (which induces hypoxia) induces luciferase transcription through activation of the VEGF promoter, which in turn causes an increase in luciferase activity, which can be measured with a commercially available kit. The compounds interfering with the Hif-1α/p300 complex inhibit Hif-dependent luciferase activation, resulting in a reduction of luciferase activity. This assay therefore allows to evaluate the activity of the compounds towards the VEGF promoter, which is essential to VEGF production and the subsequent tumor angiogenesis.
as §2, §3, §4, §5, §6, §7, §8
Quantification of the expression of the Luciferase reporter gene was performed by means of the Bright Glo Reagent (Promega). After removing the supernatant and washing once with PBS, 40 μl/well of Bright Glo Reagent were added to blank 96-well plates with Hep3B/VEGF-Luciferase cells. The expression levels of the reporter gene were determined by reading the plates with a luminometer.
as §9

T1 sequence (Q09472 323-423): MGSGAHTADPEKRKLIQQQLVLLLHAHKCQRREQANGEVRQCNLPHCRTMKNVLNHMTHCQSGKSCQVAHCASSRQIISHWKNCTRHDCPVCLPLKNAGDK

| IC50 [1] [µM] | IC50 [2] [µM] | IC50 [3] [µM] | SMILES |
| --- | --- | --- | --- |
| 14.2 | 2.03 | 0.32 | CCOC(=O)c1c2c(n(C)c1CO)C(=O)C(=O)c1ccc(Br)cc1-2 [12(a), Ethyl 8-bromo-2-hydroxymethyl-3-methyl-4,5-dioxo-4,5-dihydro-3H-benzo[e]indole-1-carboxylate] |
| 13.3 | 2.03 | 0.32 | CCOC(=O)c1c2c(n(C)c1CN(CC)CC)C(=O)C(=O)c1ccc(Br)cc1-2 [12(b), Ethyl 8-bromo-2-diethylaminomethyl-3-methyl-4,5-dioxo-4,5-dihydro-3H-benzo[e]indole-1-carboxylate] |
| 7.3 | 14.5 | 1.08 | CCOC(=O)c1c2c(n(Cc3ccccc3)c1C)C(=O)C(=O)c1ccc(Br)cc1-2 [12(c), Ethyl 8-bromo-2-methyl-3-benzyl-4,5-dioxo-4,5-dihydro-3H-benzo[e]indole-1-carboxylate] |
| 13.2 | 5.78 | 0.45 | CCOC(=O)c1c(C)[nH]c2c1-c1cc(Br)ccc1C(=O)C2=O [Example 1, Ethyl 8-bromo-2-methyl-4,5-dioxo-4,5-dihydro-3H-benzo[e]indole-1-carboxylate] |
| 3.3 | 10.7 | 0.47 | CCOC(=O)c1c2c(n(C)c1C)C(=O)C(=O)c1ccc(Br)cc1-2 [Example 3, Ethyl 8-bromo-2,3-dimethyl-4,5-dioxo-4,5-dihydro-3H-benzo[e]indole-1-carboxylate] |
| 11 | 4.8 | 1.1 | CCOC(=O)c1c2c(n(C)c1CN1CCOCC1)C(=O)C(=O)c1ccc(Br)cc1-2 [Example 4, Ethyl 8-bromo-3-methyl-2-(morpholin-4′-yl)methyl-4,5-dioxo-4,5-dihydro-3H-benzo[e]indole-1-carboxylate] |
| 1.5 | 1.2 | 0.26 | CCOC(=O)c1c2c(n(C)c1CN(C)C)C(=O)C(=O)c1ccc(Br)cc1-2 [Example 5, Ethyl 8-bromo-2-dimethylaminomethyl-3-methyl-4,5-dioxo-4,5-dihydro-3H-benzo[e]indole-1-carboxylate] |
| 9.1 | 0.3 | 0.3 | CCOC(=O)c1c2c(n(C)c1CNC(C)C)C(=O)C(=O)c1ccc(Br)cc1-2 [Example 6, Ethyl 8-bromo-2-isopropylaminomethyl-3-methyl-4,5-dioxo-4,5-dihydro-3H-benzo[e]indole-1-carboxylate] |
| 32.9 | > 12.5 | > 12.5 | CCOC(=O)c1c2c(n(CC(=O)O)c1C)C(=O)C(=O)c1ccc(Br)cc1-2 [Example 8, Ethyl 8-bromo-3-carboxymethyl-2-methyl-4,5-dioxo-4,5-dihydro-3H-benzo[e]indole-1-carboxylate] |
| 9.6 | > 12.5 | 0.6 | CCOC(=O)c1c2c(n(CC(N)=O)c1C)C(=O)C(=O)c1ccc(Br)cc1-2 [Example 9, Ethyl 8-bromo-3-carbamoylmethyl-2-methyl-4,5-dioxo-4,5-dihydro-3H-benzo[e]indole-1-carboxylate] |

| SMILES | IC50 [1] [µM] | IC50 [2] [µM] | IC50 [3] [µM] |
| --- | --- | --- | --- |
| CCOC(=O)c1c2c(n(CC(=O)OC(C)(C)C)c1C)C(=O)C(=O)c1ccc(Br)cc1-2 [Example 7, Ethyl 8-bromo-3-tert-butoxycarbonylmethyl-2-methyl-4,5-dioxo-4,5-dihydro-3H-benzo[e]indole-1-carboxylate] | 14.9 | 9.3 | 1.6 |
